{"source": "ChEMBL document CHEMBL3507680", "about": "“University of Dundee, Gates Library screen for HepG2 cell viability”", "data": [{"assay": "Human HepG2 cell viability assay in 384 well format", "type": "toxicity, cell-based", "design": "dose 125 nL, time 70.5 hour; concentration not given beside the values", "details": "HepG2 cells, read-out: Inhibition", "units": {"cytotoxicity at 70.5 h": "%"}, "values": [{"smiles": "CC(O)CN1CCN(C(=O)c2cccn2Cc2cccnc2)CC1", "note": "(stereo not given)", "cytotoxicity at 70.5 h": -11.4}, {"smiles": "CC(C)Cc1cc(C(=O)NCCn2nc3ccccn3c2=O)[nH]n1", "cytotoxicity at 70.5 h": -3.87}, {"smiles": "COc1cccc([C@H]2CN(CCCS(=O)(=O)N(C)C)C[C@@H]2N)c1", "cytotoxicity at 70.5 h": -3.42}, {"smiles": "O=C(Nc1cccn(Cc2ccc(F)cc2)c1=O)c1csnn1", "cytotoxicity at 70.5 h": -0.164}, {"smiles": "CC(C)NC(=O)N1CCN2C(=O)N(Cc3ccc(F)cc3)C[C@H]2C1", "cytotoxicity at 70.5 h": -4.66}, {"smiles": "CNC(=O)N1CCN(C(=O)N(C)C)CC2(CC(=O)N(C)C2)C1", "note": "(stereo not given)", "cytotoxicity at 70.5 h": -20}, {"smiles": "CCC(CNC(=O)c1ccccc1OC)N1CCc2ccccc2C1", "note": "(stereo not given)", "cytotoxicity at 70.5 h": 7.61}, {"smiles": "O=C(CN1CCC(C(=O)c2cc(F)ccc2F)CC1)NC1CCCC1", "cytotoxicity at 70.5 h": 24.6}, {"smiles": "CC(NC(=O)NCCCc1n[nH]c(N)c1C#N)c1ccccc1", "note": "(stereo not given)", "cytotoxicity at 70.5 h": 26.6}, {"smiles": "O=C(Cc1cccc(O)c1)NCCCNC(=O)c1cccc(F)c1", "cytotoxicity at 70.5 h": -5.97}, {"smiles": "Cn1cc(C2CCCN2C(=O)c2cnc(-c3ccccn3)s2)cn1", "note": "(stereo not given)", "cytotoxicity at 70.5 h": 3.12}, {"smiles": "COCCC(=O)N1CCCC(CCC(=O)Nc2ccc(Cl)cc2)C1", "note": "(stereo not given)", "cytotoxicity at 70.5 h": -6.03}, {"smiles": "O=C(c1ccncc1F)N1CCCC(c2nccn2CC2CCC2)C1", "note": "(stereo not given)", "cytotoxicity at 70.5 h": -21.7}, {"smiles": "CN1CCCN(C(=O)NCc2csc(Br)c2)CC1", "cytotoxicity at 70.5 h": -6.63}, {"smiles": "COC(CNC(=O)CNC(=O)c1ccccc1)c1cccc(Cl)c1", "note": "(stereo not given)", "cytotoxicity at 70.5 h": -2.92}, {"smiles": "Cc1ncccc1Oc1nccnc1C1CCN(C(C)C)CC1", "cytotoxicity at 70.5 h": -2.72}, {"smiles": "O=C(c1ccc(-c2ccccc2)[nH]c1=O)N1CCN(C2CC2)CC1", "cytotoxicity at 70.5 h": -8.84}, {"smiles": "O=C(O)c1cc2c(nc1N1CCCC1)CCN(C1CCOCC1)CC2", "cytotoxicity at 70.5 h": 12}, {"smiles": "O=S(=O)(Nc1cnc(N2CCCC2)nc1)c1ccc(OC(F)(F)F)cc1", "cytotoxicity at 70.5 h": -4.76}, {"smiles": "COCCNC(=O)c1nc(-c2ccc3cc[nH]c3c2)no1", "cytotoxicity at 70.5 h": -17.1}, {"smiles": "CN1C[C@H]2CNC[C@@]2(C(=O)N2CCN(c3ncccc3C#N)CC2)C1", "cytotoxicity at 70.5 h": -6.13}, {"smiles": "CN(C)CCN(C)c1ccc(-c2nc(COc3ccccc3)no2)cn1", "cytotoxicity at 70.5 h": 6.86}, {"smiles": "O=C(Nc1nnn[nH]1)c1cc(-c2ccc(Br)s2)n[nH]1", "cytotoxicity at 70.5 h": -3.48}, {"smiles": "CNC(=O)c1cccnc1N1CCC(Oc2ccc(F)cc2)CC1", "cytotoxicity at 70.5 h": -14.2}, {"smiles": "Cc1csc(CNC(=O)N(C)Cc2ccc3c(c2)OCO3)n1", "cytotoxicity at 70.5 h": -9.49}, {"smiles": "CCOCc1ccc(NC(=O)C(C)C)cc1", "cytotoxicity at 70.5 h": 19.1}, {"smiles": "Cc1nc(C)n(CC2CN(Cc3cccc4c3OCCO4)CCO2)n1", "note": "(stereo not given)", "cytotoxicity at 70.5 h": 1.12}, {"smiles": "Cc1csc(CN2C[C@@H]3CN(C)CCO[C@@H]3C2)n1", "cytotoxicity at 70.5 h": -3.79}, {"smiles": "COc1ccc(CC(=O)N2CCCC(n3nc(C)cc3C)C2)cc1F", "note": "(stereo not given)", "cytotoxicity at 70.5 h": -9.02}, {"smiles": "CCN(Cc1ccoc1)C(=O)c1ccncc1O", "cytotoxicity at 70.5 h": -9.48}, {"smiles": "Cc1ccoc1-c1nnc(CNCC2CCCN2c2cccnn2)o1", "note": "(stereo not given)", "cytotoxicity at 70.5 h": -4.49}, {"smiles": "O=C(CN1CC(c2ccccc2)CC1=O)N1CCC(c2ncc[nH]2)CC1", "note": "(stereo not given)", "cytotoxicity at 70.5 h": -4.48}, {"smiles": "CCS(=O)(=O)N1C[C@H]2CCC[C@@]2(COc2ccccn2)C1", "cytotoxicity at 70.5 h": -21.9}, {"smiles": "Cc1c[nH]nc1C1CCN(S(=O)(=O)N(C)C)CC1", "cytotoxicity at 70.5 h": 0.689}, {"smiles": "COC1(CNS(=O)(=O)c2ccccc2Br)CCSC1", "note": "(stereo not given)", "cytotoxicity at 70.5 h": -4.04}, {"smiles": "CN(C)C(=O)COC1COC2(CCN(c3cnccn3)CC2)C1", "note": "(stereo not given)", "cytotoxicity at 70.5 h": 1.25}, {"smiles": "Cc1ccsc1C(=O)N1CC2CC1(C(=O)NCC1CC1)C2", "cytotoxicity at 70.5 h": -16.8}, {"smiles": "CC(=O)N(C)CC(=O)NC1(c2ccc(Cl)c(Cl)c2)CC1", "cytotoxicity at 70.5 h": -10}, {"smiles": "Cc1ccc2cc(C(=O)NCCn3nc4ccccn4c3=O)[nH]c2c1", "cytotoxicity at 70.5 h": 8.99}, {"smiles": "c1cc(NCc2cscn2)cc(OCCN2CCCCC2)c1", "cytotoxicity at 70.5 h": -2.11}, {"smiles": "COC(=O)CNc1ccc(-c2nc(Cc3ccc(OC)cc3)no2)cn1", "cytotoxicity at 70.5 h": -10.8}, {"smiles": "CCc1nc(C2CCCN2C(=O)c2cc3c(s2)CCC3)no1", "note": "(stereo not given)", "cytotoxicity at 70.5 h": -2.7}, {"smiles": "Cc1cnn(CCNCC(O)c2ccc3c(c2)OCCO3)c1", "note": "(stereo not given)", "cytotoxicity at 70.5 h": 4.42}, {"smiles": "Cc1cccc(-c2ccc3nc(C4CCN(CC5CC5)CC4)nn3c2)c1", "cytotoxicity at 70.5 h": 0.0128}, {"smiles": "CC(C)C(C(=O)N1CCN(c2ccncc2)CC1)n1cncn1", "note": "(stereo not given)", "cytotoxicity at 70.5 h": -7.42}, {"smiles": "CCN(CC)c1ccc(C(=O)NCC2(C(N)=O)CCOCC2)cn1", "cytotoxicity at 70.5 h": -4.92}, {"smiles": "Cc1cc(NC(=O)CN(C)CC2CCCN2c2cccnn2)n(C)n1", "note": "(stereo not given)", "cytotoxicity at 70.5 h": -5.26}, {"smiles": "CC1(C2CCN(CCCC(=O)O)CC2)CN(Cc2ccccc2)C(=O)O1", "note": "(stereo not given)", "cytotoxicity at 70.5 h": 2.48}, {"smiles": "Cc1nn(C)c(C)c1C1CCCN1C(=O)c1cc[nH]n1", "note": "(stereo not given)", "cytotoxicity at 70.5 h": -3.7}, {"smiles": "Cc1cnn(CC2CCCCN2C(=O)c2ccc(C#N)c(C)n2)c1", "note": "(stereo not given)", "cytotoxicity at 70.5 h": -0.947}, {"smiles": "O=C(C1CC(=O)N(c2n[nH]c3cc(Br)ccc23)C1)N1CCOCC1", "note": "(stereo not given)", "cytotoxicity at 70.5 h": -11.9}, {"smiles": "CSCC(C)(O)CNC(=O)c1ccc(F)cc1Cl", "note": "(stereo not given)", "cytotoxicity at 70.5 h": 0.551}, {"smiles": "O=C1NCCCCC1NS(=O)(=O)N1CCCCC1", "note": "(stereo not given)", "cytotoxicity at 70.5 h": -10.6}, {"smiles": "CC(C)n1cnc(C2CN(C)c3ccc(C(=O)NC4CCCC4)cc32)n1", "note": "(stereo not given)", "cytotoxicity at 70.5 h": -5.54}, {"smiles": "CCC(CC(=O)Nc1ccc2c(c1)CC(=O)N2)c1ccccc1", "note": "(stereo not given)", "cytotoxicity at 70.5 h": -6.03}, {"smiles": "O=C1O[C@@H]2CN(Cc3cccnc3)C[C@@H]2N1CCCN1CCOCC1", "cytotoxicity at 70.5 h": -1.95}, {"smiles": "CCN(Cc1noc(CC(C)C)n1)Cc1ccccc1Cl", "cytotoxicity at 70.5 h": 1.69}, {"smiles": "CCN1CCOC(CNCc2cnc(C(C)(C)C)s2)C1", "note": "(stereo not given)", "cytotoxicity at 70.5 h": -5.25}, {"smiles": "COc1ccc(CN2C[C@@H]3CN(S(=O)(=O)C4CC4)C[C@@H]3C2=O)cc1", "cytotoxicity at 70.5 h": -9.53}, {"smiles": "Cc1cnn(CC2CCCCN2C(=O)c2cc(C(N)=O)cs2)c1", "note": "(stereo not given)", "cytotoxicity at 70.5 h": 28.2}, {"smiles": "CN(Cc1cccc(C(N)=O)c1)CC1CCCN1c1cccnn1", "note": "(stereo not given)", "cytotoxicity at 70.5 h": -10.2}, {"smiles": "CN(C)CCCC(=O)NC1CC(C)(C)Cc2nc(C(C)(C)C)ncc21", "note": "(stereo not given)", "cytotoxicity at 70.5 h": -17.7}, {"smiles": "CN(C)CC1CN(Cc2coc(-c3ccccc3Cl)n2)CCO1", "note": "(stereo not given)", "cytotoxicity at 70.5 h": 7.1}, {"smiles": "FC(F)(F)c1[nH]nc2c1CN(Cc1ccccc1)CC2", "cytotoxicity at 70.5 h": -11.1}, {"smiles": "CCn1nc(C)cc1C(=O)N1CC[C@H](OC)[C@H]2CN(CC3CC3)C[C@H]21", "cytotoxicity at 70.5 h": 7.23}, {"smiles": "Cc1csc(CN(C)CCOc2ccccc2)n1", "cytotoxicity at 70.5 h": 20.8}, {"smiles": "COc1ccc2cc(C3CN(C(=O)CCNC(C)=O)CCO3)ccc2c1", "note": "(stereo not given)", "cytotoxicity at 70.5 h": 2.84}, {"smiles": "CC1CCN(S(=O)(=O)N2CCCC(c3cccc(C(=O)O)c3)C2)CC1", "note": "(stereo not given)", "cytotoxicity at 70.5 h": -12.1}, {"smiles": "CCn1cc(CNC(=O)CCc2nnc(-c3ccc(C)s3)o2)cn1", "cytotoxicity at 70.5 h": 10}, {"smiles": "Cc1ncccc1-c1cc2cccnc2n1CCCNC(=O)C1CC1", "cytotoxicity at 70.5 h": 1.77}, {"smiles": "Cc1cnc(-n2cnnc2)c(-c2cccc3c2CCNC3)c1", "cytotoxicity at 70.5 h": -7.78}, {"smiles": "CS(=O)(=O)c1cccc(S(=O)(=O)NC(=O)CCC2CCCCC2)c1", "cytotoxicity at 70.5 h": -7.19}, {"smiles": "N#Cc1ccc(CNC(=O)NCCC(=O)NC2CCCC2)c(F)c1", "cytotoxicity at 70.5 h": -2.28}, {"smiles": "CC(=O)N(Cc1noc(C)n1)C1CCN(CC(=O)N(C)C2CC2)C1", "note": "(stereo not given)", "cytotoxicity at 70.5 h": -2.89}, {"smiles": "Cc1ccc(-n2cc(C)cn2)c(NC(=O)NC2(C)CCOC2)c1", "note": "(stereo not given)", "cytotoxicity at 70.5 h": -2.69}, {"smiles": "COCCC(=O)N1CCC(c2ccc3c(NC(C)C)n[nH]c3n2)C1", "note": "(stereo not given)", "cytotoxicity at 70.5 h": -6.39}, {"smiles": "O=S(=O)(NCC1(c2cccs2)CCCC1)c1cccnc1", "cytotoxicity at 70.5 h": -4.26}, {"smiles": "c1cc(CN2CC[C@@H]3CN(c4cncnc4)C[C@@H]3C2)ccn1", "cytotoxicity at 70.5 h": -6.08}, {"smiles": "CC(=O)N1CCOC2(CCCN(Cc3ccc(Cl)c(C(F)(F)F)c3)C2)C1", "note": "(stereo not given)", "cytotoxicity at 70.5 h": -1.77}, {"smiles": "O=C(Cc1ccccc1)N1CCC2(CC1)CN(c1ncccn1)CCO2", "cytotoxicity at 70.5 h": -9.68}]}]}
